Laboratory results as given in ChEMBL document CHEMBL1134013, “Synthesis and biological evaluation of benzo[b]naphthyridones, a series of new topical antibacterial agents” (2001).
≈ marks a conversion by molar mass, not a printed value.

Experiments:
Staphylococcus hominis = assay: Minimum inhibitory concentration against Quinolone sensitive Staphylococcus hominis IP8203 Strain.; assay type: functional
Staphylococcus aureus = assay: Minimum inhibitory concentration against Quinolone Resistant Staphylococcus aureus LF11C128B Strain.; assay type: functional

Row | Structure (SMILES) | MIC (Staphylococcus hominis) [µg/mL] | MIC (Staphylococcus aureus) [µg/mL]
1 | Cn1cc(C(=O)O)c(=O)c2cc3cc(F)c(N4CCCCCCC4)cc3nc21 | 1 (≈ 2.61 µM) | 1 (≈ 2.61 µM)
2 | CSCc1cccc(N2CCN(c3cc4nc5c(cc4cc3F)c(=O)c(C(=O)O)cn5C)CC2)c1 | 4 (≈ 8.12 µM) | 4 (≈ 8.12 µM)
3 | Cn1cc(C(=O)O)c(=O)c2cc3cc(F)c(N4CCN(Cc5ccc(F)cc5)CC4)cc3nc21 | 0.5 (≈ 1.08 µM) | 1 (≈ 2.15 µM)
4 | C/C(=C\C(=O)OCCCCCCCCC(=O)[O-])C[C@@H]1OC[C@H](C[C@@H]2O[C@H]2[C@@H](C)[C@H](C)O)[C@@H](O)[C@H]1O.C/C(=C\C(=O)OCCCCCCCCC(=O)[O-])C[C@@H]1OC[C@H](C[C@@H]2O[C@H]2[C@@H](C)[C@H](C)O)[C@@H](O)[C@H]1O.[Ca+2] | 0.5 | 0.5
5 | C[N+](C)(C)CCO.Cn1cc(C(=O)[O-])c(=O)c2cc3cc(F)c(N4CCN(c5ccc(F)cc5)CC4)cc3nc21 | 0.25 | 0.5
6 | Cn1cc(C(=O)O)c(=O)c2cc3cc(F)c(NC4CCCCC4)cc3nc21 | 1 (≈ 2.71 µM) | 1 (≈ 2.71 µM)
7 | CCn1cc(C(=O)O)c(=O)c2cc(F)c(N3CCN(C)CC3)cc21 [PEFLOXACIN] | 0.5 (≈ 1.5 µM) | –
